{"source": "patent US12708113B2", "about": "“Herbicidal compositions and methods of use thereof” (Valent U.S.A. LLC, priority 2018, dated 2026)", "assay": "Metribuzin solubility in salt solutions", "assay_type": "physicochemical", "conditions": "ammonium sulfate, ammonium acetate and potassium citrate tribasic monohydrate solutions; FIG. 1", "protocol": "Metribuzin is partially soluble in water. Because of its partial solubility metribuzin grows crystals in aqueous solutions. It is a discovery of the present invention that, if water solubility of metribuzin is lowered, then crystal growth is inhibited or reduced. To determine if salts could lower the water solubility of metribuzin, metribuzin was added to the saturation point to several concentrations of ammonium sulfate, ammonium acetate and potassium citrate tribasic monohydrate solutions. Results can be seen in FIG. 1."}
{"smiles": "CSc1nnc(C(C)(C)C)c(=O)n1N", "note": "[metribuzin, Metribuzin]", "values": [{"measurement": "water solubility of metribuzin versus salt concentration", "value": "negatively correlated"}]}
